In one data set the target is T1, PI3Kα (Homo sapiens, UniProt P42336).
T1 construct: purchased Millipore 14-602-K
Nature of the data set: In vitro test of enzyme activity (ADP-Glo lipokinase), PI3K alpha. As to conditions: 40 μM ATP, 50 μM PIP2:3PS, 120 min. The format is biochemical. For orientation: In ADP-Glo the light output rises with the ADP produced.

A further data set concerns the target T2, PI3Kβ (Homo sapiens, UniProt P42338).
T2 construct: purchased Promega V1751
Nature of the data set: In vitro test of enzyme activity (ADP-Glo lipokinase), PI3K beta. It counts as biochemical. As to conditions: 40 μM ATP, 50 μM PIP2:3PS, 120 min.

The test system of data set [1] is phosphorylation of PI3K downstream protein Akt in MCF7 cells. The data set is described as follows: In vitro test of cells activity: ELISA of Akt phosphorylation in MCF7 cells. It counts as cell-based. The note with it: 2 h compound, insulin 10 μg/mL stimulation, pAkt ELISA, read-out: MCF7 Cell IC50. As for the experimental part:
2. In vitro test of cells activity
By the method of ELISA, the inhibition level of the test compound on the phosphorylation of PI3K downstream protein Akt in the signaling pathway was determined in MCF7 cells line to reflect the cells activity of the compound.
Cell culture medium: complete cell culture medium (RPMI 1640+10% serum+1% L-glutamine+1% double antibody)
Serum-free medium (without serum, RPMI 1640+1% L-glutamine+1% double antibody)
The detailed procedures areas follows:
(1) MCF7 cells (ATCC® HTB-22™) were inoculated into a 96-well plate at 100 μL of cell complete medium per well (2.5*10^4 cells per well), and the cells were incubated at 37° C. and 5% CO2 for 24 hours.
(2) The complete cell culture medium was replaced with 100 μL of serum-free medium, and incubated for starvation overnight.
(3) The compound was prepared (The initial concentration of the compound is 1 mM, which was subjected to a three-fold dilution in 10 concentrations, and the compound of each concentration was then diluted 100-fold with serum-free medium). 25 μL of the diluted compound was added to the cells orifice plate.
(4) The cells were incubated at 37° C. and 5% CO2 for 2 hours.
(5) The cells in the well plate were stimulated with 10 μg/mL insulin (Sigma # I9278-5 mL), incubated for 30 minutes, and then centrifuged at 1000 rpm for 5 minutes at room temperature.
(6) 250 μL of 1× balanced salt solution (Invitrogen, #14065-056, 4° C., containing 1 mM/L Na3VO4) was added to each well to wash the cells once.
(7) 100 μL of lysis buffer (trimethylolaminomethane hydrochloride, Invitrogen, #15567-1000 ml) was added to each well, shaken at 4° C. for 60 minutes, and then centrifuged at 4000 rpm for 4 minutes.
(8) The following procedures were carried out according to the instructions of ELISA kit (TGR BioSciences # EKT002).
On the technique in general: An ELISA detects its analyte on a solid surface through an enzyme-linked reagent.

A short description of data set [2]: In vivo DMPK study in mice after a single administration. More on the design: species or system female Balb/c mice. The note with it: for Cmax / Oral DNAUC (area under the dose normalization curve): oral. As for the experimental part: Experimental objective: female Balb/c mice were used as the test animals, and the blood concentration of the compound was determined and the pharmacokinetic behavior was evaluated after a single administration.
Experimental operation: 12 healthy adult female Balb/c mice were selected, 6 for intravenous injection group and 6 for oral administration group. The compound to be tested was mixed with an appropriate amount of intravenous injection group vehicle (10% HP-betaCD: 10% solutol=1:1, pH=8), vortex-mixed and sonicated to prepare a 1.0 mg/mL clear solution, followed by filtration for subsequent use; the vehicle in the oral group was 0.5% MC/0.2% Tw80. After the test compound and the vehicle were mixed, it was vortex-mixed and sonicated to prepare a 1.0 mg/mL homogeneous suspension for subsequent use. After an intravenous administration at a dose of 1 mg/kg or an oral administration at the dose of 2 mg/kg and 10 mg/kg, whole blood of the mice was collected for a certain period of time to prepare plasma. The drug concentration was analyzed by LC-MS/MS method, and Phoenix WinNonlin software was used (Pharsight, USA) to calculate the pharmacokinetic parameters.
Cmax: the highest concentration of the drug in the body; F %: oral bioavailability; Oral DNAUC: area under the dose normalization curve; Vd: apparent volume of distribution; Cl: clearance rate; T1/2: half-life.

A further data set has as its target T3, PI3Kγ (Homo sapiens, UniProt P48736).
T3 construct: purchased Millipore 14-558-K
Nature of the data set: In vitro test of enzyme activity (ADP-Glo lipokinase), PI3K gamma. It counts as biochemical. As to conditions: 25 μM ATP, 50 μM PIP2:3PS, 120 min. As to the method:
(§1) 1. In Vitro Test of Enzyme Activity
(§2) The lipokinase reaction was carried out under the conditions of a suitable substrate and ATP, followed by two steps to detect the kinase activity with the ADP-Glo™ kit. The first step was terminating the kinase reaction, wherein the remaining ATP was completely removed and only ADP was left; the second step was adding kinase detection reagents to convert ADP to ATP, accompanied by luciferin/luciferase reaction. Finally, the output value of fluorescence value was converted into kinase activity.
(§3) Experimental materials and equipments:
(§4) 2. Kit: ADP-Glo™ Lipokinase and PIP2:3PS Kit (Promega # V1792)
(§5) The kit contains: 1 mM PIP2:3PS, 10× lipid dilution buffer, 1 M magnesium chloride, 10 mM ATP, 10 mM ADP, ADP-Glo reagent, detection buffer and detection substrate.
(§6) 3. Reaction plate: OptiPlate-384, white and transparent (PerkinElmer #6007299).
(§7) 1. 10× reaction buffer: 500 mM HEPES, pH 7.5, 500 mM NaCl, 9 mM MgCl2; BSA: 10% stock solution, homemade.
(§8) 2. Final test system conditions: 1× reaction system: 50 mM HEPES, 50 mM NaCl, 3 mM MgCl2, 0.01% BSA (freshly prepared on the day of the experiment), 1% DMSO (v/v)+/−compound
(§9) 3. Reaction system: 3 μL mixture of the enzyme and the substrate (1:1)+2 μL ATP/MgCl2 mixture+5 μL ADP-Glo reagent+10 μL detection reagent.
(§10) The detailed experimental procedures are as follows:
(§11) 1. Compound dilution: 50 nL 100×compound/DMSO was transferred to the test well plate with Echo. • For PI3Kα, the compound was diluted three-fold from the highest concentration of 0.111 mM for a total of 10 concentrations. • For PI3Kβ/PI3Kδ/PI3Kγ, the compound was three-fold diluted from the highest concentration of 1.11 mM for a total of 10 concentrations.
(§12) (1) The compound to be tested was prepared and 50 nL of 100 plus compound solution or DMSO was added to the corresponding well plate.
(§13) (2) 3.33 plate reaction buffer was prepared.
(§14) (3) 3.33 solution PIP2:3PS was prepared, PIP2:3PS was thawed for at least 1 minute before use.
(§15) (4) 2.5 mM containing 5.25 mM MgCl2 was prepared.
(§16) (5) 3.33 PI3Kα/PI3Kβ/PI3Kδ/PI3Kγ solution was prepared.
(§17) (6) The lipokinase solution and the PIP2:3PS solution were mixed in a volume ratio of 1:1.
(§18) (7) 3.33: lipokinase buffer and PIP2:3PS solution were mixed in a volume ratio of 1:1.
(§19) (8) 3 μL of buffer solution and PIP2:3PS were added to the first and the second columns of the well plate.
(§20) (9) 3 μL of the mixed solution of the enzyme and PIP2:3PS was added to the wells except the first and the second columns, centrifuged for 10 seconds (1000 rpm) and incubated at 23° C. for 20 minutes.
(§21) (10) 2 μL […] was added and well was shaken.
(§22) (11) The well plate was covered and shaken for about 30 s, then the well plate was incubated at 23° C. for 2 hours.
(§23) (12) 5 μL of ADP-Glo reagent containing 10 mM MgCl2 was added.
(§24) (13) The well plate was centrifuged at 1000 rpm for 10 seconds, and the well plate was then covered, shaken for about 30 seconds, and incubated at 23° C. for 60 minutes.
(§25) (14) 10 μL kinase detection reagent was added.
(§26) (15) The well plate was centrifuged at 1000 rpm for 10 seconds, and then incubated at 23° C. for 60 minutes.
(§27) (16) The fluorescence value was measured on the Envision instrument.

For another data set, the target named is T4, PI3Kδ (Homo sapiens, UniProt O00329).
T4 construct: purchased Millipore 14-604-K
The data set is described as follows: In vitro test of enzyme activity (ADP-Glo lipokinase), PI3K delta. The format is biochemical. The note with it: 40 μM ATP, 50 μM PIP2:3PS, 120 min. As to the method: as §1, §2, §3, §4, §5, §6, §7, §8, §9, §10, §11, §12, §13, §14, §15, §16, §17, §18, §19, §20, §21, §22, §23, §24, §25, §26, §27

The test system of another data set is PI3K. The note with it: literature statement; cited from earlier work.

Structures are written as SMILES. pIC50: −log10 of the molar value. Where two headings read alike, the source gives them in different places.

Here are results for nine molecules from patent US20200317660A1, “Quinazolinone Compound and Application Thereof” (LUOXIN PHARMACEUTICAL (SHANGHAI) CO., LTD., priority 2017, published 2020).

T4 sequence (O00329 whole entry): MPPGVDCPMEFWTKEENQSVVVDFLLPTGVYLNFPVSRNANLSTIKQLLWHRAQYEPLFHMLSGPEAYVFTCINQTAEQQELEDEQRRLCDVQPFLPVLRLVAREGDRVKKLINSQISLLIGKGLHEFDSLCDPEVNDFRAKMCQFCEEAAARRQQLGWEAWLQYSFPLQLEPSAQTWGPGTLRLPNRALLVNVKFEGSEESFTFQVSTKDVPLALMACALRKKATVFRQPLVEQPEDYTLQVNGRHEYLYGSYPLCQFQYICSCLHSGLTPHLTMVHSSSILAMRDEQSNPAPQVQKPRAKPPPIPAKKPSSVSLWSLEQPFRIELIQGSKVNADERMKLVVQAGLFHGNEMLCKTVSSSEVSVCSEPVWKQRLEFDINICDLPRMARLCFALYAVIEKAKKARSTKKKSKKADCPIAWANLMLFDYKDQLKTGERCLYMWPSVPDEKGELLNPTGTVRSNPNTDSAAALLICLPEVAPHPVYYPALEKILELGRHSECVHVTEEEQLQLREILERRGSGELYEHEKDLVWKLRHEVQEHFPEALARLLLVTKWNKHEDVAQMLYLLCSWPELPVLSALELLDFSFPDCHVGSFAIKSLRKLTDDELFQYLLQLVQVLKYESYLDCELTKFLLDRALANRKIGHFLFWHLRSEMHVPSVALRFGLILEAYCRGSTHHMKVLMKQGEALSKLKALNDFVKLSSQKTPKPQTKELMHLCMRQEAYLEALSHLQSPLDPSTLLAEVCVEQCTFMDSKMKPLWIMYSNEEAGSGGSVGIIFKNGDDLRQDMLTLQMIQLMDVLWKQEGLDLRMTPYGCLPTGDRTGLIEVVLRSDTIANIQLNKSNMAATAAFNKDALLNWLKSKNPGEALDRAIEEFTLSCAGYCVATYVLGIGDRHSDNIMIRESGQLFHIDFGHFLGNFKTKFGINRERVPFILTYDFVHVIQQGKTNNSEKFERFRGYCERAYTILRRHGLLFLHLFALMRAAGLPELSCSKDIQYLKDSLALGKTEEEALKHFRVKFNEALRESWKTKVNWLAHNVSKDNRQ
T4 sequence (P27986 whole entry partner): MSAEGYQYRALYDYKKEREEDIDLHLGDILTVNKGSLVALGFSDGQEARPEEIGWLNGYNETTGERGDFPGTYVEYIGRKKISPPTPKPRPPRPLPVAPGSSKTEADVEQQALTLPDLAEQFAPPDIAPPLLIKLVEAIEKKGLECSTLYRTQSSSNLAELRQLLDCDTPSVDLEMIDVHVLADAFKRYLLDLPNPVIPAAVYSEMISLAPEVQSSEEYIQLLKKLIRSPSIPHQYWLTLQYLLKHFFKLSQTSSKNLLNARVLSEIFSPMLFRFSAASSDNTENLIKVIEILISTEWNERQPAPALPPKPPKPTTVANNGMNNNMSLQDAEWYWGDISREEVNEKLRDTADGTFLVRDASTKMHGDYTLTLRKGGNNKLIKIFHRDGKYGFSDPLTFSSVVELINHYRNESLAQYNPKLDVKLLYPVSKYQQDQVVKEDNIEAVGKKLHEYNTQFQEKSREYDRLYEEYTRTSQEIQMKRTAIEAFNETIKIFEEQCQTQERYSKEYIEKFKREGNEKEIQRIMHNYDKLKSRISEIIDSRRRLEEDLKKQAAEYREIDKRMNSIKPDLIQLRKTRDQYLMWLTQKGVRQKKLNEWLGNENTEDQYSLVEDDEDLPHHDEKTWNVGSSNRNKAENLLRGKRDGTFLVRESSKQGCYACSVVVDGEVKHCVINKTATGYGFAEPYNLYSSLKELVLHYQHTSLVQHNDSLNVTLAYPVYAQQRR
T1 sequence (P42336 whole entry): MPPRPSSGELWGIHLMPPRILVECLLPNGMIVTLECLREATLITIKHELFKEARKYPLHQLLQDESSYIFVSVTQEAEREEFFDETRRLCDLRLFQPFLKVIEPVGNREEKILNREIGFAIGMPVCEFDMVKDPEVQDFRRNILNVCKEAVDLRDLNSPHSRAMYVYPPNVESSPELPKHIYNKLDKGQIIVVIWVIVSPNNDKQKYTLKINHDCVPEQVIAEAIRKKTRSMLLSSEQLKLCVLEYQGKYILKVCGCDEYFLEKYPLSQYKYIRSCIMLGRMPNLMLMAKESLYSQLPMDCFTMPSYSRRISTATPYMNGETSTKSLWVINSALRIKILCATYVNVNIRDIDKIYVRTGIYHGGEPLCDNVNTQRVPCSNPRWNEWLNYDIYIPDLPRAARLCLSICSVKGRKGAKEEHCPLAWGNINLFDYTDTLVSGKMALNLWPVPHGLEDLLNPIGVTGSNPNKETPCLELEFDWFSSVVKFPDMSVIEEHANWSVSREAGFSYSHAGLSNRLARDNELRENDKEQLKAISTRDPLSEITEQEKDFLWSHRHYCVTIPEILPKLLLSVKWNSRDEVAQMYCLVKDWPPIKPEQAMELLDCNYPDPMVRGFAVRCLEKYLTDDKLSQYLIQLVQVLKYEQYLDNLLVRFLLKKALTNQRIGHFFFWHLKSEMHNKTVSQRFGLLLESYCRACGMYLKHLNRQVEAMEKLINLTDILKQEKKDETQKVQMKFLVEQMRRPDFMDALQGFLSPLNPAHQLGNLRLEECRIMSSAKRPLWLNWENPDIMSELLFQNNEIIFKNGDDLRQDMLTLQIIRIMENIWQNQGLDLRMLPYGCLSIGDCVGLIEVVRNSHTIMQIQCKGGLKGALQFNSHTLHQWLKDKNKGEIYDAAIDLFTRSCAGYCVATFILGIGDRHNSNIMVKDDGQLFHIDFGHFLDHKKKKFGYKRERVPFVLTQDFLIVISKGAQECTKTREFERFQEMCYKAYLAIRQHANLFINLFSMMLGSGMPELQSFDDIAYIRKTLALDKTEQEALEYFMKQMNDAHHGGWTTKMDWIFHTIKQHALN
T1 sequence (P27986 whole entry partner): as the sequence (P27986 whole entry partner) above
T2 sequence (P42338 whole entry): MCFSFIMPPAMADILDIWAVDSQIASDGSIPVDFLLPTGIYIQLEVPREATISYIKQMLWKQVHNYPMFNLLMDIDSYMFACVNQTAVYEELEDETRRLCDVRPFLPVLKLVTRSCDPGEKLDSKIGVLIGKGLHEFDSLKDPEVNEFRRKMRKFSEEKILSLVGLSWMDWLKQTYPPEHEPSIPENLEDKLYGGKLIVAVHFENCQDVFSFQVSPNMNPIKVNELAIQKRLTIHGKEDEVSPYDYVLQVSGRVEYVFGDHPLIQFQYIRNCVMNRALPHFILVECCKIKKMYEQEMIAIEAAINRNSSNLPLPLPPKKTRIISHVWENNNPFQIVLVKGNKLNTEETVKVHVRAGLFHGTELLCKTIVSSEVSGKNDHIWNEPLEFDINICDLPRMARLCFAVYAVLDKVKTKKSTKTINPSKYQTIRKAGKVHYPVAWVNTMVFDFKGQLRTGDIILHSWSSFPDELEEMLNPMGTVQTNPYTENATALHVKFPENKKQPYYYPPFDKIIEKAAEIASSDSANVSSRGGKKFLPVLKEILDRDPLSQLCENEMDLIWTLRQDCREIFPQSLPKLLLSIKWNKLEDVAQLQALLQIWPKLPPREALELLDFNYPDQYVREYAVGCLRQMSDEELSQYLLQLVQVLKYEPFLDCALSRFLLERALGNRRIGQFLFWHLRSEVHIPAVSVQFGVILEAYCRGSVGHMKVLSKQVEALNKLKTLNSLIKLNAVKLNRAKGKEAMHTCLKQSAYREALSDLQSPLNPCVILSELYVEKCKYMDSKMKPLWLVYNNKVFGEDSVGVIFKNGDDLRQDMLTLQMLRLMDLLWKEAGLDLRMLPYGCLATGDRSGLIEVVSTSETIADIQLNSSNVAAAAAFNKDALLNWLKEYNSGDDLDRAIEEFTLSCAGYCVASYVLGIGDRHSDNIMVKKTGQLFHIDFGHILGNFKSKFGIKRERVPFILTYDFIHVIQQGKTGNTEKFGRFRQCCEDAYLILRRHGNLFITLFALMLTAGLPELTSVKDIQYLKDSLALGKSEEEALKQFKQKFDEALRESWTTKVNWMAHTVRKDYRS
T2 sequence (P27986 whole entry partner): as the sequence (P27986 whole entry partner) above
T3 sequence (P48736 whole entry): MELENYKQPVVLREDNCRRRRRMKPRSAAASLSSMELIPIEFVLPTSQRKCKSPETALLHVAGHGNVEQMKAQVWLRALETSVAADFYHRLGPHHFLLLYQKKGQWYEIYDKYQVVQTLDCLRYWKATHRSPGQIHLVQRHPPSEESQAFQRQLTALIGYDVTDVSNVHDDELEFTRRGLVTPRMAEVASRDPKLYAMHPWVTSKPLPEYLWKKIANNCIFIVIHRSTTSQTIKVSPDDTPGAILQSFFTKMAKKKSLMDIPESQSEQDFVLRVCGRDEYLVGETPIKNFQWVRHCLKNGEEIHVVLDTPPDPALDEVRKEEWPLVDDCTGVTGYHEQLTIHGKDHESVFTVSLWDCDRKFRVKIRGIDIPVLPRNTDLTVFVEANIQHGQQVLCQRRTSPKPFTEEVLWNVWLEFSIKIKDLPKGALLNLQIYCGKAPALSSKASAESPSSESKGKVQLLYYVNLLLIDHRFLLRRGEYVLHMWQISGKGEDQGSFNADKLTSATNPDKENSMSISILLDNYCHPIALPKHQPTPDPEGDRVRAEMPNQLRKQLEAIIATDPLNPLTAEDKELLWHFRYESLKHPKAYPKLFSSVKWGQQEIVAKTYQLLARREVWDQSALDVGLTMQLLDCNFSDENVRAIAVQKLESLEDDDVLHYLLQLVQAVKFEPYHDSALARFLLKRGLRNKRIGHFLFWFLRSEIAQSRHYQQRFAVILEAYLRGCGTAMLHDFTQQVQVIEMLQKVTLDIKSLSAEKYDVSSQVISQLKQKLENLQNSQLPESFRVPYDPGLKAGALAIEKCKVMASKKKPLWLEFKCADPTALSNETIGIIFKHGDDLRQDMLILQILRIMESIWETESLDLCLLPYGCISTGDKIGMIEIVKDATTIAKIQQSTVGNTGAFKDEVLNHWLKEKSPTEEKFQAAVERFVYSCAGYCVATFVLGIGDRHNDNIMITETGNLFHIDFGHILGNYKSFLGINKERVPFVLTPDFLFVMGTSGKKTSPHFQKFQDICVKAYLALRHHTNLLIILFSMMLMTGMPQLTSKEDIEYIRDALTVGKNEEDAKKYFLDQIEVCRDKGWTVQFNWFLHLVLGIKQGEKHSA

By pIC50 is commonly meant −log10 of the IC50, conventionally taken in molar units. Usually Cmax stands for the highest concentration seen after dosing. Regarding `CNC(=O)C(C)Cn1cnc2ccc(-c3cnc(OC)c(NS(=O)(=O)c4ccc(F)cc4C)c3)cc2c1=O` (single isomer, unassigned) [WX181], the pIC50 at PI3Kα was 8.15; against PI3Kβ it was 6.14; in data set [1], 8.04; on PI3Kγ it was 7.32; at PI3Kδ, 7.32. In data set [2] (10 mpk), this molecule gave a maximum concentration (Cmax) of 8.34 µM. The “Oral DNAUC (area under the dose normalization curve)” value in data set [2] (10 mpk) is 882.0 nM · h/mpk.

`CCN(CC)CCn1cnc2ccc(-c3cnc(OC)c(NS(=O)(=O)c4ccc(F)cc4F)c3)cc2c1=O` [R012, reference compound]: the pIC50 is 7.86 against PI3Kα; 7.17 against PI3Kβ; under 6.00 in data set [1] (Homo sapiens, MCF7, 2 h). Also, the “inhibitory effect on PI3K” value in the data set on PI3K was “good inhibitory effect”.

Regarding `CNC(=O)C(C)Cn1cnc2ccc(-c3cnc(OC)c(NS(=O)(=O)c4cc(Cl)ccc4C)c3)cc2c1=O` (single isomer, unassigned) [WX222], the pIC50 is 8.74 against PI3Kα; 6.44 against PI3Kβ; 7.90 in data set [1]; 7.53 against PI3Kγ; 7.68 on PI3Kδ. The molecule also gave a Cmax in data set [2] (10 mpk) of 6.88 µM. Besides, in data set [2] (10 mpk), the “Oral DNAUC (area under the dose normalization curve)” value amounted to 1300 nM · h/mpk.

For `COc1ncc(-c2ccc3ncn(CCN(C)C)c(=O)c3c2)cc1NS(=O)(=O)c1ccc(F)cc1` [R011, reference compound], the pIC50 against PI3Kα is 7.13; against PI3Kβ, 6.77; in data set [1] (Homo sapiens, MCF7, 2 h), 6.64. Besides, the “inhibitory effect on PI3K” value in the data set on PI3K was “good inhibitory effect”.

With `CNC(=O)C(C)Cn1cnc2ccc(-c3cnc(OC)c(NS(=O)(=O)c4ccc(F)cc4)c3)cc2c1=O` (single isomer, unassigned) [WX087], the negative-log IC50 (pIC50) at PI3Kα is 8.47; on PI3Kβ it was 6.45; in data set [1], 7.72; against PI3Kγ, 7.38; at PI3Kδ it was 7.51. This molecule registered a Cmax in data set [2] (10 mpk) of 5 µM. For the same molecule, the “Oral DNAUC (area under the dose normalization curve)” value in data set [2] (10 mpk) was 1372 nM · h/mpk.

`COc1ncc(-c2ccc3ncn(CC(C)C(=O)NCCF)c(=O)c3c2)cc1NS(=O)(=O)c1ccc(F)cc1Cl` (single isomer, unassigned) [WX067]: the pIC50 against PI3Kα is 8.61; against PI3Kβ, 6.40; in data set [1] it was 7.17; on PI3Kγ it was 7.74; at PI3Kδ, 7.73. The Cmax in data set [2] (2 mpk) is 3.39 µM. The “Oral DNAUC (area under the dose normalization curve)” value in data set [2] (2 mpk) came to 1047 nM · h/mpk.

Consider `CNC(=O)C(C)Cn1cnc2ccc(-c3cnc(OC)c(NS(=O)(=O)c4cc(Cl)ccc4Cl)c3)cc2c1=O` (single isomer, unassigned) [WX183], for which the pIC50 on PI3Kα is 9.02; against PI3Kβ it was 6.78; in data set [1], 7.29; at PI3Kγ it was 8.09; on PI3Kδ, 8.20. The molecule also yielded a Cmax in data set [2] (10 mpk) of 25.9 µM. Also, the “Oral DNAUC (area under the dose normalization curve)” value in data set [2] (10 mpk) was determined as 4867 nM · h/mpk.

Take `CNC(=O)C(C)Cn1cnc2ccc(-c3cnc(OC)c(NS(=O)(=O)c4cc(C)ccc4Cl)c3)cc2c1=O` (single isomer, unassigned) [WX214]: the pIC50 at PI3Kα was 8.65; at PI3Kβ, 6.56; in data set [1] it was 7.76; on PI3Kγ, 7.50; against PI3Kδ, 7.73. For the same molecule, the Cmax in data set [2] (10 mpk) was 8.41 µM. In data set [2] (10 mpk), the “Oral DNAUC (area under the dose normalization curve)” value was determined as 734 nM · h/mpk.

`CNC(=O)C(C)Cn1cnc2ccc(-c3cnc(OC)c(NS(=O)(=O)c4cc(C(F)(F)F)cc(C(F)(F)F)c4)c3)cc2c1=O` (single isomer, unassigned) [WX103]: the negative-log IC50 (pIC50) on PI3Kα was 7.68; against PI3Kβ it was 5.64; in data set [1], 7.87; at PI3Kγ, 6.44; against PI3Kδ, 6.39. In addition, the “Cl (clearance rate)” value in data set [2] (intravenous 1 mg/kg) came out at 1.29 mL/min/kg. Moreover, in data set [2] (intravenous 1 mg/kg), the “Intravenous injection T1/2” value was 3.55 h. In addition, the “Vd (apparent volume of distribution)” value in data set [2] (intravenous 1 mg/kg) was found to be 0.324 L/kg. The “F % (oral bioavailability)” value in data set [2] (oral 10 mpk vs intravenous 1 mg/kg) was found to be 58.4%. Further, in data set [2] (10 mpk), the Cmax was determined as 18.3 µM. The “Oral DNAUC (area under the dose normalization curve)” value in data set [2] (10 mpk) is reported as 12262 nM · h/mpk.
